Settings: Liquid, Vibrating tube method

CCCCCC [hexane]
mass density [kg/m3]
Settings	100 kPa	1000 kPa	5000 kPa	10000 kPa	20000 kPa	30000 kPa	40000 kPa	50000 kPa	60000 kPa
278.15 K	673.3	673.9	677.6	681.8	689.6	696.8	703.2	709.2	715
298.15 K	656.1	655.9	660.1	665.1	673.9	681.9	689	695.5	701.7
323.15 K	631.7	633.1	638.2	644.2	654.7	663.9	671.9	679.3	686.1
348.15 K	–	608.5	614.9	622.1	634.6	645.2	654.4	662.6	670.2
373.15 K	–	582.6	591	600	614.8	627	637.4	646.6	654.9
423.15 K	–	521.2	536.9	551.5	573.2	589.7	603.2	614.6	624.8
463.15 K	–	–	484.2	508.5	538.9	559.8	575.9	589.3	600.7

CCCCCCCCCCCCCCCC [hexadecane]
mass density [kg/m3]
Settings	100 kPa	1000 kPa	5000 kPa	10000 kPa	20000 kPa	30000 kPa	40000 kPa	50000 kPa	60000 kPa
298.15 K	770.5	771.1	773.6	776.9	782.6	788.1	–	–	–
323.15 K	753.1	753.9	756.8	760.4	766.9	772.9	778.5	783.8	788.7
348.15 K	735.6	736.5	739.8	743.8	751.1	757.8	763.9	769.7	775.1
373.15 K	717.8	719.4	723.2	727.7	735.9	743.4	750.3	756.5	762.4
423.15 K	680.8	684.1	689.2	695.1	705.5	714.7	722.9	730.4	737.2
463.15 K	651.6	654.5	661	668.5	681.2	692	701.4	709.8	717.5

CCCCCCCCCCCC [dodecane]
mass density [kg/m3]
Settings	100 kPa	1000 kPa	5000 kPa	10000 kPa	20000 kPa	30000 kPa	40000 kPa	50000 kPa	60000 kPa
278.15 K	759.2	760.5	763.1	766.2	771.9	777.3	782.3	787.1	791.7
298.15 K	745.6	746.2	749	752.4	758.7	764.7	770.1	775.3	780.2
323.15 K	727.2	728.2	731.4	735.3	742.6	749.2	755.2	760.9	766.3
348.15 K	708.7	709.6	713.4	717.8	726.1	733.5	740.2	746.4	752.3
373.15 K	–	690.8	695.2	700.4	709.8	718.1	725.6	732.5	738.9
423.15 K	–	652.6	658.7	665.6	677.6	688	697	705.3	712.8
463.15 K	–	–	627.9	636.9	651.8	664.2	674.8	684.1	692.6

CCCCCCCCCC [decane]
mass density [kg/m3]
Settings	100 kPa	1000 kPa	5000 kPa	10000 kPa	20000 kPa	30000 kPa	40000 kPa	50000 kPa	60000 kPa
278.15 K	741.6	742.2	745	748.3	754.4	760.1	765.4	770.4	775.3
298.15 K	726.7	727.4	730.5	734.2	740.9	747.2	753	758.4	763.7
323.15 K	707.4	708.4	711.9	716.2	724	731.1	737.5	743.5	749.2
348.15 K	687.6	688.6	692.8	697.7	706.7	714.6	721.8	728.4	734.6
373.15 K	667.1	668.8	673.8	679.6	689.8	698.8	706.8	714.1	720.8
423.15 K	624.8	627.2	634.5	642.4	655.8	667.1	677	685.9	693.8
463.15 K	–	590.4	600.3	610.8	627.8	641.4	653.1	663.3	672.1

— the NIST ThermoML archive (doi:10.1021/acs.jced.5b00613)
